Results on 14 molecules are retold here after PubChem BioAssay (NCI).

Each structure is given as a SMILES string.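 Protocol summary: plate cells (96-well), add compound at 5 concentrations, incubate 48 h, interpolate endpoints linearly. At the GI50, growth is halved. TGI is the concentration that stops growth completely.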

Among the test systems are 786-0 renal; ACHN renal; MCF7 breast; UO-31 renal; SK-OV-3 ovarian; HL-60(TB) leukemia; HOP-62 NSCLC; EKVX NSCLC; OVCAR-5 ovarian; OVCAR-4 ovarian; PC-3 prostate.
Holding throughout (assay): growth of human tumour cells (NCI), 48 h

For the molecule `CCOC(=O)C(/C=N/C(N)=S)=C(/O)c1ccccc1`, the TGI in the experiment with 786-0 renal, in the experiment with ACHN renal, with MCF7 breast, in the experiment with UO-31 renal, in the experiment with SK-OV-3 ovarian and with HL-60(TB) leukemia was over 100 µM throughout. Moreover, the TGI in the experiment on HOP-62 NSCLC, in the experiment with EKVX NSCLC, in the experiment with OVCAR-5 ovarian and with OVCAR-4 ovarian was over 100 µM throughout.

On to `CCOC(=O)C(C(=O)OCC)C(=S)NC1OC(COC(C)=O)C(OC(C)=O)C(OC(C)=O)C1OC(C)=O` (configuration not stated), for which the TGI in the experiment with 786-0 renal, with MCF7 breast, in the experiment with UO-31 renal, in the experiment with SK-OV-3 ovarian, with HL-60(TB) leukemia and in the experiment with HOP-62 NSCLC was over 100 µM in each case. Moreover, the TGI in the experiment on EKVX NSCLC, with OVCAR-5 ovarian and in the experiment on OVCAR-4 ovarian was over 100 µM in each case.

Turning to `COc1cc2oc(=O)cc(C)c2c(OC)c1OC`, the TGI with 786-0 renal, with ACHN renal, in the experiment on PC-3 prostate, in the experiment on MCF7 breast, in the experiment with UO-31 renal and with SK-OV-3 ovarian was over 100 µM in each case. The TGI in the experiment on HOP-62 NSCLC, in the experiment with EKVX NSCLC, in the experiment with OVCAR-5 ovarian and in the experiment with OVCAR-4 ovarian was over 100 µM throughout.

With `c1ccc2c[n+](Cc3ccnc4ccccc34)ccc2c1`, the TGI in the experiment with 786-0 renal, in the experiment with ACHN renal, in the experiment with PC-3 prostate, in the experiment with MCF7 breast, with UO-31 renal and with SK-OV-3 ovarian was over 100 µM throughout. In addition, the TGI with HOP-62 NSCLC, with EKVX NSCLC, in the experiment on OVCAR-5 ovarian and in the experiment with OVCAR-4 ovarian was over 100 µM in each case.

In the case of `O=C(CN1CCOCC1)c1ccc2c(c1)oc(=O)n2CCN1CCCCC1`, the TGI in the experiment on 786-0 renal, in the experiment with ACHN renal, in the experiment on PC-3 prostate, in the experiment with MCF7 breast, with UO-31 renal and in the experiment on SK-OV-3 ovarian was over 100 µM throughout. For the same molecule, the TGI with HL-60(TB) leukemia, with HOP-62 NSCLC, in the experiment on EKVX NSCLC and in the experiment on OVCAR-5 ovarian was over 100 µM each time.

Regarding `CCOC1=NC(C(F)(F)F)(C(F)(F)F)N=C(/N=C(/N)N(C)C(C(C)C)P(=O)(OC(C)C)OC(C)C)O1` (configuration not stated), the TGI in the experiment with 786-0 renal, with ACHN renal, with PC-3 prostate, in the experiment with MCF7 breast, in the experiment on UO-31 renal and in the experiment with SK-OV-3 ovarian was over 100 µM each time. In addition, the TGI in the experiment with HL-60(TB) leukemia was 80.1 µM; in the experiment with HOP-62 NSCLC it was over 100 µM; with EKVX NSCLC, over 100 µM; with OVCAR-5 ovarian it was over 100 µM.

In the case of `CCN(CC)C(=O)CCNC(C)Cc1c[nH]c2ccccc12` (configuration not stated), the TGI in the experiment with 786-0 renal, in the experiment on ACHN renal, in the experiment with PC-3 prostate, in the experiment with UO-31 renal, with SK-OV-3 ovarian and with HL-60(TB) leukemia was over 100 µM each time. Moreover, the TGI in the experiment with HOP-62 NSCLC, with EKVX NSCLC, with OVCAR-5 ovarian and in the experiment on OVCAR-4 ovarian was over 100 µM each time.

Regarding `CN1CCN(C(=S)N(C(=O)c2ccc(Cl)cc2)C2CCCCC2)CC1`, the TGI in the experiment on 786-0 renal, in the experiment with ACHN renal, with MCF7 breast, in the experiment on UO-31 renal, with HL-60(TB) leukemia and with OVCAR-5 ovarian was over 100 µM throughout. This molecule had a TGI in the experiment on OVCAR-4 ovarian of over 100 µM.

On to `Nc1nc(=O)n(C2CC(O)C(CO)O2)c2nc(-c3ccc(-c4ccccc4)cc3)cnc12` (configuration not stated), for which the TGI was over 100 µM in the experiment with 786-0 renal; over 100 µM with ACHN renal; over 100 µM with PC-3 prostate; 54.1 µM in the experiment on MCF7 breast; over 100 µM in the experiment on UO-31 renal; over 100 µM in the experiment on SK-OV-3 ovarian. The TGI in the experiment with HOP-62 NSCLC is 82.9 µM; with EKVX NSCLC, over 100 µM; in the experiment on OVCAR-5 ovarian, over 100 µM; with OVCAR-4 ovarian, over 100 µM.

On to `CN(C)CCNc1nc2c(c(=O)n(C)c(=O)n2C)n1C`, for which the TGI in the experiment on 786-0 renal, in the experiment with ACHN renal, with MCF7 breast, in the experiment on UO-31 renal, in the experiment with SK-OV-3 ovarian and in the experiment with HL-60(TB) leukemia was over 100 µM throughout. The TGI with HOP-62 NSCLC, with EKVX NSCLC, in the experiment with OVCAR-5 ovarian and in the experiment on OVCAR-4 ovarian was over 100 µM in each case.

Turning to `COc1ccc(-c2cc(-c3ccncc3)nc(N)c2-c2ccc(F)cc2)cc1`, the TGI with 786-0 renal is over 100 µM; in the experiment with ACHN renal, 75.4 µM; in the experiment with PC-3 prostate, over 100 µM; with MCF7 breast, over 100 µM; with UO-31 renal it was over 100 µM; in the experiment with SK-OV-3 ovarian, over 100 µM. Also, the TGI in the experiment with HOP-62 NSCLC, in the experiment with EKVX NSCLC, in the experiment with OVCAR-5 ovarian and in the experiment with OVCAR-4 ovarian was over 100 µM each time.

Turning to `CN=C(NC#N)NCc1ccccc1`, the TGI in the experiment on 786-0 renal, with ACHN renal, with UO-31 renal, in the experiment on SK-OV-3 ovarian, with HL-60(TB) leukemia and with HOP-62 NSCLC was over 100 µM throughout. In addition, the TGI with EKVX NSCLC, in the experiment with OVCAR-5 ovarian and in the experiment on OVCAR-4 ovarian was over 100 µM each time.

For the molecule `COc1cc(/C=C2\CCCC3=C2N=C2SC=NN2C3c2cc(OC)c(OC)c(OC)c2)cc(OC)c1OC` (configuration not stated), the GI50 in the experiment with ACHN renal is 1.88 µM; in the experiment with PC-3 prostate, 3.1 µM; in the experiment with MCF7 breast it was 3.82 µM; in the experiment with HL-60(TB) leukemia, 2.93 µM. Moreover, the TGI was 3.74 µM with ACHN renal, over 100 µM in the experiment on PC-3 prostate, over 100 µM in the experiment with MCF7 breast and 9.49 µM with HL-60(TB) leukemia.

Consider `COc1ccc(C(CC(=O)c2ccc(O)cc2)C(C(=O)c2ccc(O)cc2)C(c2ccc(OC)cc2)C2C(=O)NC(=S)NC2=O)cc1` (configuration not stated), for which the TGI amounted to 44.2 µM with 786-0 renal; 43.6 µM in the experiment on ACHN renal; 59.8 µM in the experiment on PC-3 prostate; 33.2 µM in the experiment with MCF7 breast; 33.8 µM in the experiment with UO-31 renal; 85.6 µM in the experiment on HL-60(TB) leukemia. Also, the TGI with HOP-62 NSCLC turned out to be 67.1 µM; in the experiment with OVCAR-5 ovarian, 49.6 µM; with OVCAR-4 ovarian it was 63.2 µM.
